Assay results published in patent US20220380347A1, “INHIBITORS OF CYSTEINE PROTEASES AND METHODS OF USE THEREOF” (Pardes Biosciences, Inc., priority 2020, published 2022).
Like-named read-outs stand apart in the source and are kept apart here.

Tests used:
229E Mpro = 229E Mpro (Human coronavirus 229E, UniProt P0C6X1); test: 229E Mpro enzymatic assay (standard methods, SARS-CoV2 Mpro assay given as exemplary); type: biochemical, human coronavirus (HCov) 229E
How it was run: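 IC50 for 229E Mpro by standard methods; exemplary SARS-CoV-2 protocol used C-His6-tagged Mpro from E. coli, 25 nM enzyme, 25 μM substrate (Km 13.5 μM), in Tris-HCl pH 7.3, NaCl, EDTA, TCEP, 0.1% BSA. Inhibition normalised to no-compound and full-effect controls; four-parameter fit.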

[1] = biological target: COVID-19 (nCoV-2019, SARS-CoV2) Mpro (Severe acute respiratory syndrome coronavirus 2, UniProt P0DTD1); test: COVID-19 (nCoV-2019, SARS-CoV2) Mpro enzymatic assay; type: biochemical; conditions: 25 nM Mpro, 25 μM substrate; read-out: COVID-19 Mpro IC50
HCov OC43 = test: HCoV OC43 cytopathic effect (CPE) assay, CellTiter Glo; type: cell-based, human coronavirus (HCov) OC43
[2] = Betacoronavirus 1, OC43, read-out: OC43 IC50 (uM) MEDIAN, median
[3] = read-out: OC43 IC50 (uM) MEDIAN, median

Chain of 229E Mpro (P0C6X1 2966-3267): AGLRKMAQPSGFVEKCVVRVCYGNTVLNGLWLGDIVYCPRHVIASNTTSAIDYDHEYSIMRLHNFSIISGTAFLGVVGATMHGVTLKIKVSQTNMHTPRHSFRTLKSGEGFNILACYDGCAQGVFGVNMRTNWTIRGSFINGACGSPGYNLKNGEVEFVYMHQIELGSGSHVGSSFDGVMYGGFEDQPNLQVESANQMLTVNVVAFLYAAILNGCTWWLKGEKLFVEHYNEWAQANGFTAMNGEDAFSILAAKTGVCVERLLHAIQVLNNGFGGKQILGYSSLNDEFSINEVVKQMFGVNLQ

SMILES | EC50 (229E Mpro; 229E Mpro EC50) | IC50 [1] | IC50 (HCov OC43; [2]) | IC50 (HCov OC43; [3]) | EC50 (229E Mpro; read-out: 229E Mpro EC50) | IC50 (HCov OC43; read-out: OC43 IC50 (uM) MEDIAN, median, listed as 374 Isomer 1)
CO[C@@H]1C[C@H](C(=O)N(c2ccc(S(F)(F)(F)(F)F)cc2)C(C(=O)NCCc2cc(F)cc(F)c2)c2cccnc2)N(C#N)C1 (single isomer, unassigned) [1196 Isomer 1] | < 2000 nM | 2000 to 10000 nM | 2 to 10 µM |  |  | 
Cc1ccnc(C)c1C(C(=O)NC1CCC(F)(F)CC1)N(C(=O)[C@H]1C[C@@](C)(O)CN1C#N)c1ccc(S(F)(F)(F)(F)F)cc1 (stereo partly drawn) [Compound 997c, (2R,4R)-1-cyano-N-[2-[(4,4-difluorocyclohexyl)amino]-1-(2,4-dimethyl-3-pyridyl)-2-oxo-ethyl]-4-hydroxy-4-methyl-N-[4-(pentafluoro-λ^6-sulfanyl)phenyl]pyrrolidine-2-carboxamide] | < 2000 nM | 10000 to 30000 nM | 2 to 10 µM |  |  | 
CO[C@@H]1C[C@H](C(=O)N(c2ccc(S(F)(F)(F)(F)F)cc2)C(C(=O)NC(C)C2CCCCN2C(=O)OC(C)(C)C)c2cccnc2)N(C#N)C1 (single isomer, unassigned) [1303 Isomer 1] | < 2000 nM | 2000 to 10000 nM |  | 2 to 10 µM |  | 
CC1(C)CN(C#N)[C@@H](C(=O)N(c2ccc(S(F)(F)(F)(F)F)cc2)C(C(=O)NC2CCC(F)(F)CC2)c2cncc(F)c2)CO1 (single isomer, unassigned) [1086b Isomer 1] | < 2000 nM | < 2000 nM | < 2 µM |  |  | 
N#CN1C[C@H](O)C[C@@H]1C(=O)N(c1ccc(S(F)(F)(F)(F)F)cc1F)C(C(=O)NC1CCC(F)(F)CC1)c1cccnc1 (single isomer, unassigned) [1288a Isomer 1] | < 2000 nM | < 2000 nM | < 2 µM |  |  | 
O=C1CCCCC1C(=O)N(c1ccc(S(F)(F)(F)(F)F)cc1)C(C(=O)NC1CCC(F)(F)CC1)c1cncc(F)c1 (stereo not drawn) [Compound 1114] | 2000 to 10000 nM | 10000 to 30000 nM | > 30 µM |  |  | 
CO[C@@H]1C[C@H](C(=O)N(c2ccc(S(F)(F)(F)(F)F)cc2F)C(C(=O)NC2CCC(F)(F)CC2)c2cccnc2)N(C#N)C1 (single isomer, unassigned) [1288 Isomer 2] |  | < 2000 nM |  | 2 to 10 µM | < 2000 nM | 
CO[C@@H]1C[C@H](C(=O)N(c2ccc(S(F)(F)(F)(F)F)cc2)C(C(=O)NCC2(C)COC2)c2cccnc2)N(C#N)C1 (single isomer, unassigned) [1176 Isomer 1] | < 2000 nM | < 2000 nM | < 2 µM |  |  | 
COc1ccc(NC(=O)C(c2cccnc2)N(C(=O)[C@H]2C[C@@H](OC)CN2C#N)c2ccc(S(F)(F)(F)(F)F)cc2)cn1 (single isomer, unassigned) [1180 Isomer 2] | < 2000 nM | < 2000 nM |  | < 2 µM |  | 
N#CN1CC(=O)NCC1C(=O)N(c1ccc(S(F)(F)(F)(F)F)cc1)C(C(=O)NC1CCC(F)(F)CC1)c1cncc(F)c1 (single isomer, unassigned) [Compound 1160 Isomer 1, 1-cyano-N-[2-[(4,4-difluorocyclohexyl)amino]-1-(5-fluoro-3-pyridyl)-2-oxo-ethyl]-5-oxo-N-[4-(pentafluoro-λ6-sulfanyl)phenyl]piperazine-2-carboxamide] | < 2000 nM | < 2000 nM | < 2 µM |  |  | 
N#CN1C[C@H](F)C[C@@H]1C(=O)N(c1ccc(S(F)(F)(F)(F)F)cc1)C(C(=O)NC1CCC(F)(F)CC1)c1cncc(F)c1 (single isomer, unassigned) [Compound 1098 Isomer 2] |  | < 2000 nM |  | < 2 µM | < 2000 nM | 
CO[C@@H]1C[C@H](C(=O)N(c2ccc(S(F)(F)(F)(F)F)cc2)C(C(=O)NC2CCC(F)(F)CC2)c2cnccc2C)N(C#N)C1 (single isomer, unassigned) [Compound 1199] | < 2000 nM | < 2000 nM |  | < 2 µM |  | 
Cc1ccncc1C(C(=O)NC1CCC(F)(F)CC1)N(C(=O)[C@H]1C[C@@](C)(O)CN1C#N)c1ccc(S(F)(F)(F)(F)F)cc1 (stereo partly drawn) [Compound 993c, (2R,4R)-1-cyano-N-[2-[(4,4-difluorocyclohexyl)amino]-1-(4-methyl-3-pyridyl)-2-oxo-ethyl]-4-hydroxy-4-methyl-N-[4-(pentafluoro-λ6-sulfanyl)phenyl]pyrrolidine-2-carboxamide] | < 2000 nM | < 2000 nM | 2 to 10 µM |  |  | 
N#CC1(C(=O)N(c2ccc(S(F)(F)(F)(F)F)cc2)C(C(=O)NC2CCC(F)(F)CC2)c2cncc(F)c2)CC1 (single isomer, unassigned) [1289 Isomer 2, 1-cyano-N-[2-[(4,4-difluorocyclohexyl)amino]-1-(5-fluoro-3-pyridyl)-2-oxo-ethyl]-N-[4-(pentafluoro-λ^6-sulfanyl)phenyl]cyclopropanecarboxamide] |  | > 30000 nM |  | > 30 µM | > 30000 nM | 
N#CN1CC[C@H]2C[C@]21C(=O)N(c1ccc(S(F)(F)(F)(F)F)cc1)C(C(=O)NC1CCC(F)(F)CC1)c1cncc(F)c1 (stereo partly drawn) [Compound 1261, (1R,5S)-2-cyano-N-[2-[(4,4-difluorocyclohexyl)amino]-1-(5-fluoro-3-pyridyl)-2-oxo-ethyl]-N-[4-(pentafluoro-λ^6-sulfanyl)phenyl]-2-azabicyclo[3.1.0]hexane-1-carboxamide] | 2000 to 10000 nM | > 30000 nM | > 30 µM |  |  | 
CO[C@@H]1C[C@H](C(=O)N(c2ccc(C(C)(C)C)cc2)C(C)(C(=O)NC2CCCCC2)c2cccnc2)N(C#N)C1 (single isomer, unassigned) [1230 Isomer 2] | < 2000 nM | < 2000 nM |  | < 2 µM |  | 
COc1ccc(NC(=O)C(c2cccnc2)N(C(=O)[C@H]2C[C@@H](OC)CN2C#N)c2ccc(S(F)(F)(F)(F)F)cc2)cn1 (single isomer, unassigned) [1180 Isomer 1] | 2000 to 10000 nM | 2000 to 10000 nM | 2 to 10 µM |  |  | 
N#CN1C[C@H](O)C[C@@H]1C(=O)N(c1ccc(S(F)(F)(F)(F)F)cc1F)C(C(=O)NC1CCC(F)(F)CC1)c1cccnc1 (single isomer, unassigned) [1288a Isomer 2] |  | 2000 to 10000 nM |  | 2 to 10 µM | < 2000 nM | 
CC(C)(C)c1ccc(N(C(=O)[C@H]2CCCN2C#N)C(C(=O)NCCN2CCOCC2)c2cccnc2)cc1 (single isomer, unassigned) [391 Isomer 1] | < 2000 nM | < 2000 nM |  | < 2 µM |  | 
CC1(C)CN(C#N)[C@@H](C(=O)N(c2ccc(C(C)(C)C)cc2)C(C(=O)NC2CCOCC2)c2cccnc2)CO1 (single isomer, unassigned) [1141 Isomer 1] | 10000 to 30000 nM | 2000 to 10000 nM |  | 2 to 10 µM |  | 
CO[C@@H]1C[C@H](C(=O)N(c2ccc(C(C)(C)C)cc2F)C(C(=O)NC2CCC(F)(F)CC2)c2cncc(F)c2)N(C#N)C1 (single isomer, unassigned) [1207 Isomer 1] | 10000 to 30000 nM | 2000 to 10000 nM |  | 10 to 30 µM |  | 
CO[C@@H]1C[C@H](C(=O)N(c2ccc(S(F)(F)(F)(F)F)cc2)C(C(=O)NCC2(C)CCCN(C(=O)OC(C)(C)C)C2)c2cccnc2)N(C#N)C1 (single isomer, unassigned) [1290 Isomer 1] | < 2000 nM | < 2000 nM | 2 to 10 µM |  |  | 
CO[C@@H]1C[C@H](C(=O)N(c2ccc(S(F)(F)(F)(F)F)cc2)C(C(=O)Nc2ccc3c(c2)OCCO3)c2cccnc2)N(C#N)C1 (single isomer, unassigned) [1170 Isomer 1] | 2000 to 10000 nM | 10000 to 30000 nM | 2 to 10 µM |  |  | 
CO[C@@H]1C[C@H](C(=O)N(c2ccc(S(F)(F)(F)(F)F)cc2)C(C(=O)N(C)CC(=O)NC2CC2)c2cccnc2)N(C#N)C1 (single isomer, unassigned) [Compound 1122] | < 2000 nM | < 2000 nM | < 2 µM |  |  | 
CC(C)(C)c1ccc(N(C(=O)[C@H]2Cc3ccccc3CN2C#N)C(C(=O)NC2CCCCC2)c2cccnc2)cc1 (single isomer, unassigned) [Compound 374 Isomer 1] | > 30000 nM | > 30000 nM |  |  |  | > 30 µM
CC(C)(C)c1ccc(N(C(=O)[C@H]2C[C@@](C)(O)CN2C#N)C(C(=O)NC2CCOCC2)c2cccnc2)cc1 (single isomer, unassigned) [1142 Isomer 2] |  | 2000 to 10000 nM |  | 10 to 30 µM | < 2000 nM | 
CC(C)(C)c1ccc(N(C(=O)[C@H]2CCCN2C#N)C(C(=O)N2CCC(N)CC2)c2cccnc2)cc1 (stereo partly drawn) [Compound 966] | > 30000 nM | > 30000 nM | > 30 µM |  |  | 
CO[C@@H]1C[C@H](C(=O)N(c2ccc(S(F)(F)(F)(F)F)cc2)C(C(=O)N2CCC3(COC3)C2)c2cccnc2)N(C#N)C1 (stereo partly drawn) [Compound 1174, (2R,4R)-1-cyano-4-methoxy-N-[2-(2-oxa-7-azaspiro[3.4]octan-7-yl)-2-oxo-1-(3-pyridyl)ethyl]-N-[4-(pentafluoro-λ^6-sulfanyl)phenyl]pyrrolidine-2-carboxamide] | < 2000 nM | 2000 to 10000 nM | < 2 µM |  |  | 
CO[C@@H]1C[C@H](C(=O)N(c2ccc(C(C)(C)C)cc2)C(C)(C(=O)NC2CCC(F)(F)CC2)c2cnccn2)N(C#N)C1 (single isomer, unassigned) [1198 Isomer 1] | 2000 to 10000 nM | 10000 to 30000 nM | 2 to 10 µM |  |  | 
N#CN1CC(F)(F)C[C@@H]1C(=O)N(c1ccc(S(F)(F)(F)(F)F)cc1)C(C(=O)NC1CCC(F)(F)CC1)c1cccnc1 (single isomer, unassigned) [1087 Isomer 1] | < 2000 nM | < 2000 nM |  | < 2 µM |  | 
